# Laboratory results from patent US5872148A, “Compositions useful as a cannabinoid receptor probe” (University of Connecticut, priority 1995, dated 1999).
# Key:
# cannabinoid receptor [1] = molecular target: T1, cannabinoid receptor (Rattus norvegicus, UniProt P20272); assay: Receptor binding assay, [^3 H]CP-55,940, rat forebrain membrane, Tris buffer with bovine serum albumin; conditions: for affinity for the cannabinoid receptor (in words): demonstrated by IC50 values; for IC50: rat forebrain membrane, 0.8 nM [^3 H]CP-55,940, 0.1% bovine serum albumin, pH 7.4, 1 hour at 30° C.
# T1 construct: membrane preparations from rat forebrains; from tissue; host or cells: rat forebrain membranes
# Protocol: The affinity of compositions of this invention for cannabinoid binding sites was tested by using membrane preparations from rat forebrains. A composition is tested by incubating various concentrations of the composition with approximately 50 μg of rat forebrain membrane, 20 mM Tris Buffer, 3 mM MgCl2, 1 mM EDTA (pH, 7.4) containing 0.1% bovine serum albumin, and 0.8 nM of the cannabinoid radioligand [^3 H]CP-55,940, (Dupont-NEN). Assays were incubated in Regisil-treated test tubes for 1 hour at 30° C. and were subsequently filtered on GF/C filters using a Brandell M-24 Cell Harvester. Following four washes with 20 mM Tris buffer (pH 7.4) and 3 mM MgCl2, the GF/C filters were collected, and shaken for 1 hour with 2 mL of 0.1% SDS. Ligand binding was counted on a Beckman liquid scintillation counter.
# Non-specific binding was assessed from tubes containing 250 nM desacetyllevo-nantradol by the method described in W. A. Devane et al., Determination and Characterization of a Cannabinoid Receptor in Rat Brain, Mol. Pharmacol., 34:605 (1988). Data were collected from 3 experiments performed on 11-hydroxy-7'-azido-1',1'-dimethylheptyl-Δ^8 -THC and on 11-hydroxy-7'-isothiocyanate-1',1'-dimethyl-heptyl-Δ^8 -THC, each.
# cannabinoid receptor [2] = molecular target: T1, cannabinoid receptor; assay: Receptor inactivation test (equilibration / photoirradiation), rat forebrain membranes; assay type: binding; conditions: 1 hour at 30° C., azide: UV irradiated 13 minutes, washed
# Protocol: The ability of affinity ligands to inactivate the cannabinoid receptor in vitro was tested through photoirradiation experiments. All procedures involving affinity ligands were conducted in the dark using only a safety light. Rat forebrain membranes (1-3 mg) in 20 mM Tris Buffer, 3 mM MgCl2, and 1 mM EDTA (pH 7.4) were incubated with an appropriate amount of either 11-hydroxy-7'-azido-1',1'-dimethylheptyl-Δ^8 -THC or 11-hydroxy-7'-isothiocyanate-1',1'-dimethyl-heptyl-Δ^8 -THC, in a six-well culture plate for 1 hour at 30° C. At the end of the equilibration membranes incubated with 11-hydroxy-7'-azido-1',1'-dimethylheptyl-Δ^8 -THC were placed on ice and irradiated for 13 minutes with UV light. Membranes incubated with either of the two compounds were then pelleted using a bench top microcentrifuge. The pellets were subsequently washed at least three times with the working buffer containing 1 mg/mL bovine serum albumin, allowing at least 10 minutes between each wash for equilibration. The final pellets were resuspended in the working buffer and assayed for cannabinoid binding activity by the method of Devane et al., referenced above.
# [3] = tested on: male ICR (Institute of Cancer Research) mice; assay: Hypothermia in mice; assay type: in vivo; conditions: for ED50: Mus musculus, read-out: Hypothermia (Δtemperature), potency (ED50 value); for ED50 / Hypothermia (Δtemperature), efficacy (maximum effect): intravenous injection, mice
# Protocol: (§1) 5'-azido-THC was evaluated in vivo and compared to the parent compound (-)-Δ^8 -THC for cannabimimetic activity. Both analogs were tested in male ICR (Institute of Cancer Research) mice (Harlan, Frederick, Md.) following intravenous injection, for their abilities to produce sedation (decreased locomotor activity) and catalepsy (induction of ring immobility) as measures of drug-induced behavioral effects. They were also evaluated in the same mice for their abilities to produce hypothermia and antinociceptive activity in the mouse tail-flick assay.
# (§2) The results obtained are shown in Table I. Dose-response data were analyzed statistically by ANOVA, and the potency (ED50 value) and efficacy (maximum effect) were determined. The maximum effects given represent percent inhibition (of locomotor activity), ° C. (of hypothermia), percent immobility (of catalepsy) and percent MPE (maximum possible effect of latency of antiociception procedure).
# (§3) This evaluation was performed by methods described in M. D. Compton et al., J. Med. Chem., 34:3310 (1991), A. Makriyannis et al., Life Sci., 47:2173 (1990), and A. Charalandous et al., Pharmacol. Biochem. Behav., 40:509 (1991).
# [4] = tested on: male ICR (Institute of Cancer Research) mice; assay: Antinociceptive activity in the mouse tail-flick assay; assay type: in vivo; conditions: intravenous injection; for ED50: Mus musculus, read-out: Antinociception MPE, potency (ED50 value)
# Protocol: as §1, §2, §3
# cannabinoid receptor [5] = molecular target: T1, cannabinoid receptor; assay: Alternate receptor inactivation test (equilibration and UV irradiation), rat forebrain membrane; assay type: binding; conditions: 1 hour at 30° C., shortwave UV light
# Protocol: In an alternate receptor inactivation test, 0.5-3 mg of rat forebrain membrane was incubated with (-)5'-azido-Δ^8 -THC, previously resuspended in 5% β-cyclodextrin in 12-well tissue culture plates containing 1 mL of 20 mM potassium diethyl malonate (pH 7.4) and 0.01% β-cyclodextrin. The assay was incubated for 1 hour at 30° C. and then was placed on ice and irradiated for 13 minutes with shortwave UV light from a UVGL-25 mineralight at 10 cm distance […].
# cannabinoid receptor [6] = molecular target: T1, cannabinoid receptor; assay: Alternate affinity test, [^3 H]CP-55,940, rat forebrain membrane, potassium diethyl malonate buffer with β-cyclodextrin; assay type: binding; conditions: 100 fmol/mL [^3 H]CP-55,940, 0.01% β-cyclodextrin, pH 7.4, 1 hour at 30° C.
# Protocol: An alternate affinity test used approximately 30 μg of rat forebrain membrane in a buffer containing 20 mM potassium diethyl malonate (pH 7.4), 3 mM MgCl2, 0.01% β-cyclodextrin, and 100 fmol/mL [^3 H]CP-55,940, (Dupont-NEN). The assays were incubated in Regisil-treated test tubes for 1 hour at 30° C. and were subsequently filtered on GF/C filters. Just prior to filtration, 200 μL of 50 mg/mL bovine serum albumin is added. Following filtration, ligand binding was counted on a Beckman liquid scintillation counter.
# Non-specific binding was assessed from tubes containing 100 nM desacetyllevo-nantradol by the method described in W. A. Devane et al., Determination and Characterization of a Cannabinoid Receptor in Rat Brain, Mol. Pharmacol., 34:605 (1988).
# [7] = tested on: male ICR (Institute of Cancer Research) mice; assay: Sedation (decreased locomotor activity) in mice; assay type: in vivo; conditions: intravenous injection; for ED50: Mus musculus, read-out: Locomotion Inhibition, potency (ED50 value)
# Protocol: as §1, §2, §3
# [8] = tested on: male ICR (Institute of Cancer Research) mice; assay: Catalepsy (induction of ring immobility) in mice; assay type: in vivo; conditions: for ED50: Mus musculus, read-out: Catalepsy Immobility, potency (ED50 value); for ED50 / Catalepsy Immobility, efficacy (maximum effect), percent immobility: intravenous injection, mice
# Protocol: as §1, §2, §3
# [9] = milligram/kilogram basis, vs (-)-Δ^8 -THC
# T1 sequence (P20272 whole entry): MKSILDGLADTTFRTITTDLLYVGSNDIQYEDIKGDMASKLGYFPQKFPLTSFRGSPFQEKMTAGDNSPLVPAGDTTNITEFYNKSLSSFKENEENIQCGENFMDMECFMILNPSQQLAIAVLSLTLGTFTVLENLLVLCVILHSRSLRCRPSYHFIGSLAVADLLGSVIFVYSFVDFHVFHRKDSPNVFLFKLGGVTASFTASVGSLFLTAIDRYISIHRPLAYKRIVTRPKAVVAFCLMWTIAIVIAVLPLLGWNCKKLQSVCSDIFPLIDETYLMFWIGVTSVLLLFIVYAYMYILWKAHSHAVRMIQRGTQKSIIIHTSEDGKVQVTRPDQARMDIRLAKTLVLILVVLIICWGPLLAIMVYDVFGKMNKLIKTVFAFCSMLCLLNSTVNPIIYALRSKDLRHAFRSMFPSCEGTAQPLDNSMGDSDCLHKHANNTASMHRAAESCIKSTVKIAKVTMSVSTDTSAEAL
SMILES,affinity for the cannabinoid receptor (in words) (cannabinoid receptor [1]),IC50 (cannabinoid receptor [1]),ability to inactivate the cannabinoid receptor in vitro (cannabinoid receptor [2]),ED50 [3],"Hypothermia (Δtemperature), efficacy (maximum effect) [3]","times more potent than the parent compound (hypothermia) [3, 9]",ED50 [4],"Antinociception, efficacy (maximum effect), percent MPE (maximum possible effect) [4]",irreversible inactivation of the receptors (cannabinoid receptor [5]),specific receptor binding in equilibrated and irradiated membranes (cannabinoid receptor [5]),IC50 (cannabinoid receptor [6]),ED50 [7],"Locomotion Inhibition, efficacy (maximum effect), percent inhibition [7]",ED50 [8],"Catalepsy Immobility, efficacy (maximum effect), percent immobility [8]","times more potent than the parent compound (catalepsy) [8, 9]"
"CC(C)(CCCCCCN=[N+]=[N-])c1cc(O)c2c(c1)OC(C)(C)[C@@H]1CC=C(CO)C[C@@H]21 [11-hydroxy-7'-azido-1',1'-dimethylheptyl-Δ^8 -THC]",high affinity,2.5 nM,completely inactivate the cannabinoid receptor,–,–,–,–,–,–,–,–,–,–,–,–,–
"CC(C)(CCCCCCN=C=S)c1cc(O)c2c(c1)OC(C)(C)[C@@H]1CC=C(CO)C[C@@H]21 [11-hydroxy-7'-isothiocyanate-1',1'-dimethylheptyl-Δ^8 -THC]",high affinity,1.5 nM,completely inactivate the cannabinoid receptor,–,–,–,–,–,–,–,–,–,–,–,–,–
CC1=CC[C@@H]2[C@@H](C1)c1c(O)cc(CCCCCN=[N+]=[N-])cc1OC2(C)C [(-)5'-azido-Δ^8 -THC],–,–,–,0.8 mg/kg,-3.8 °C,19 times,0.1 mg/kg,100%,did not irreversibly inactivate the receptors,no specific receptor binding was observed,31 nM,0.2 mg/kg,73%,0.8 mg/kg,57%,6.5 times
"CCCCCc1cc(O)c2c(c1)OC(C)(C)[C@@H]1CC=C(C)C[C@@H]21 [(-)-Δ^8 -THC, reference compound]",–,–,–,15.5 mg/kg,-5.9 °C,–,1.5 mg/kg,100%,–,–,–,1.9 mg/kg,79%,5.2 mg/kg,58%,–
